This test deals with Ca^2+ spiking in Neurospora crassa conidia expressing GCaMP6s. Nature of the test: Ca^2+ spiking in single conidia expressing GCaMP6s. Particulars: conidia pre-treated with 5 mM BAPTA before ddH2O or PAF26 treatment. It counts as cell-based.

Take `O=C(O)CN(CC(=O)O)c1ccccc1OCCOc1ccccc1N(CC(=O)O)CC(=O)O` [BAPTA]: the “frequency of Ca^2+ spiking after chelation of external Ca^2+” value amounted to 0.

The values are drawn from publication doi:10.1101/2020.02.14.948786v2 (bioRxiv, 2020).
